Reference: patent US20070026478A1, “Hemiasterlin affinity probes and their uses” (WYETH, priority 2002, published 2007)
Marks after values point to notes of the source that are not given here.

How the values were obtained:
bovine MAP-rich tubulin = biological target: T1, bovine MAP-rich tubulin (Bos taurus, UniProt P81947+Q6B856); experiment: Tubulin polymerization assay in a cell-free system; format: biochemical; conditions: 0.3 μM compound
T1 construct: MAP-rich bovine brain tubulin (99% purity), Hela cell tubulin (90% purity); purchased Cytoskeleton (Denver, Colo.); host or cells: bovine brain
Procedure: In vitro tubulin polymerization assays were performed according to procedures that have been described elsewhere (Loganzo et al., Cancer Res. 2003, 63:1838-1845). Briefly, bovine MAP-rich tubulin (final concentration 1.5 mg/mL) was dissolved in cold PEM buffer containing 1 mM GTP (GPEM) and centrifuged at 12,000×g for 10 minutes at 4° C. The tubulin solution (100 μL/well) was added rapidly to wells of a low-volume, 96-well plate already containing duplicate aliquots (10 μL) of test compounds in GPEM. Final compound concentrations were 0.3 μM. Control wells contained the same final concentration of DMSO (0.3%). After initiation of the reaction, absorbance at 340 nm was measured every minute for 60 minutes at 24° C. using a SpectraMax Plus plate reader (Molecular Devices, Sunnyvale, Calif.). An increase in absorbance over time indicated an increase in turbidity resulting from tubulin polymerization.

KB cells = experiment: Cell proliferation assay in tissue culture (SRB); format: cell-based; conditions: Homo sapiens, KB, 72 h
Procedure: Cell proliferation studies were performed according to procedures described by Loganzo et al. (Cancer Res. 2003, 63:1838-1845). Briefly, KB cells were plated in 96-well plates in 100 μL media at densities pre-determined to produce 60-90% confluence at the time of analysis. Compounds, which were serially diluted into media as 2× stocks, were added to cells in duplicate. After 72 hours of incubation, cell survival was assayed by the SRB assay as described (Rabindran et al., C. Cancer Res. 1998, 58:5850-5858). IC50 values (i.e. the concentration of drug needed to inhibit cell growth by 50%) were used to evaluate drug potency.

bovine brain tubulin = biological target: T2, bovine brain tubulin (Bos taurus, UniProt P81947+Q6B856); experiment: Competition of [3H]-Probe 1 photolabeling of tubulin; format: binding; conditions: for inhibition of tubulin labeling by non-radiolabeled probe: 100 μM non-radiolabeled; for Probe 1 photolabeling of tubulin (% of no-competitor control): control (no competitor) = 100
T2 construct: MAP-rich bovine brain tubulin (99% purity), Hela cell tubulin (90% purity); purchased Cytoskeleton (Denver, Colo.); host or cells: bovine brain
Procedure: Alternatively, a cytosolic preparation of KB-3-1 cell lysates (50 μg) or KB-3-1 cells (40,000 cells) were used in the place of purified tubulin above. The supernatant of mechanically disrupted cells centrifuged at 100,000×g was used as a cytosolic preparation. K-3-1 cells were prepared by growing KB-3-1 cells in a 96-well plate and rinsing them with serum free medium.
If whole cells were used, Laemmli sample buffer was then added to lyse the cells.
Low grade SDS (Sigma, catalog No. L5750) was used in the running buffer, when needed, to allow separation of α and β-tubulin subunits. Gels were fixed, stained with Coomassie blue from BioRad (Hercules, Calif.) to ensure equal loading of protein, and sliced. […] Alternatively, gels were incubated with EN^3HANCE according to the manufacturer's instructions (Life Sciences Products, Inc.), washed, and dried prior to exposure of the gel to Biomax MX film from Kodak (Rochester, N.Y.) for fluorography.
After incubation for 30 minutes at 37° C., samples were irradiated with 360 nm UV light for 30 minutes and separated by SDS-PAGE. Gels were exposed to film using fluorographic techniques.
In particular, photolabeling experiments were performed as described in section 7.1.5 above, at both room temperature and at 37° C.

[1] = biological target: T3, tubulin in KB-3-1 cell lysates (Homo sapiens, UniProt P07437+P68363); experiment: Probe 1 photolabeling in KB-3-1 cell lysates; format: binding; conditions: 250 μM non-radiolabeled, 2.5 μM [3H]-probe 1, KB-3-1 cell lysates (50 μg)
T3 construct: a cytosolic preparation of KB-3-1 cell lysates (50 μg) or KB-3-1 cells (40,000 cells) were used in the place of purified tubulin; endogenous in cells; host or cells: KB-3-1 cells (cytosolic supernatant at 100,000 x g, or whole cells)
Procedure: FIG. 1B illustrates the labeling of KB-3-1 cell lysates (50 μg) (lanes 1 and 2) and purified bovine brain (BB) tubulin (5 μg) (lanes 3 and 4) incubated for 30 minutes at room temperature with 2.5 μM [^3H]-probe 1. Samples in lanes 1 and 3 were pre-incubated with 250 μM non-radiolabeled probe 1 prior to incubation with radiolabeled materials. Samples were analyzed as described in FIG. 1A. Lanes marked “M” are molecular weight markers in kDa.
Alternatively, a cytosolic preparation of KB-3-1 cell lysates (50 μg) or KB-3-1 cells (40,000 cells) were used in the place of purified tubulin above. The supernatant of mechanically disrupted cells centrifuged at 100,000×g was used as a cytosolic preparation. K-3-1 cells were prepared by growing KB-3-1 cells in a 96-well plate and rinsing them with serum free medium. For experiments with whole cells, 250 μM HTI-286 was used as the competitor molecule during pre-incubation at 37° C. for 15 minutes.

α-tubulin = biological target: T4, α-tubulin (Bos taurus, UniProt P81947); experiment: Subtilisin digestion of tubulin before or after labeling with Probe 1; format: biochemical, bovine
T4 construct: MAP-rich bovine brain tubulin (99% purity), Hela cell tubulin (90% purity); purchased Cytoskeleton (Denver, Colo.); host or cells: bovine brain
Procedure: FIGS. 6A-6C provide data for the digestion of tubulin by subtilisin before or after photoaffinity labeling with Probe 1. FIG. 6A diagrams the predicted subtilisin cleavage site and cleavage products for α-tubulin. FIG. 6B provides Coomassie staining (top) and fluorographic (bottom) images of fragments photolabeled with Probe 1 and exposed to subtilisin as follows: Tubulin (5 μg) was incubed without (Lanes 1 and 4) or with 0.2 μg subtilisin for 60 minutes at 30° C. and then photolabeled with 0.25 μM [^3H]-Probe 1 (Lane 2) according to conditions specified in Section 6.1.11. Alternatively, photolabeling was done before subtilisin digestions (Lane 3). In both cases samples were then separated by SDS-PAGE. […] Again, samples were separated by SDS-PAGE.
Before or after incubating with 0.25 μM (0.36 μCi) [^3H]-Probe 1 for 30 minutes at room temperature and irradiating as described in Section 7.1.5, tubulin (5 μg) was digested under native conditions with subtilisin (0.2 μg) for 60 minutes at 30° C. Enzymatic digestions were stopped with 1 mM PMSF. After both digestion and labeling, samples were resolved by SDS-PAGE under conditions that allowed separation of α- and β-tubulin subunits. Gels were then fixed and stained with Coomassie blue from BioRad (Hercules, Calif.) and subjected to fluorography.

Compound: CN[C@H](C(=O)N[C@H](C(=O)N(C)[C@H](/C=C(\C)C(=O)O)C(C)C)C(C)(C)C)C(C)(C)c1ccc(C(=O)c2ccccc2)cc1 [Probe 1, 4-benzoyl-N,β,β-trimethyl-L-phenylalanyl-N^1-[(1S,2E)-3-carboxy-1-isopropylbut-2-enyl]-N^1,3-dimethyl-L-valinamide]
- inhibition at 0.3 µM (bovine MAP-rich tubulin): 88%
- IC50 (KB cells): 0.0018 µM
- inhibition of tubulin labeling by non-radiolabeled probe (bovine brain tubulin; tubulin: radiolabeled probe 1 of 2.5:0.25 (10:1)): 93%
- inhibition of tubulin labeling by non-radiolabeled probe (bovine brain tubulin; tubulin: radiolabeled probe 1 of 2.5:2.5 (1:1)): 82%
- reduction of Probe 1 photolabeling of tubulin (bovine brain tubulin; 37° C.): about 75%
- Probe 1 photolabeling of tubulin (% of no-competitor control) (bovine brain tubulin; 37° C., 100 μM competitor): 24^† %
- Probe 1 photolabeling of tubulin (% of no-competitor control) (bovine brain tubulin; Room Temp., 2.5 μM tubulin, 0.25 μM radiolabeled Probe 1, 100 μM competitor): 12 ± 7.8%
- IC50 (bovine brain tubulin; room temperature, 2.5 μM tubulin, 0.25 μM radiolabeled Probe 1, read-out: IC50 for inhibition of Probe 1 photolabeling of tubulin): 5 µM
- reduction of Probe 1 photolabeling of tubulin (bovine brain tubulin; room temperature, 400-fold molar excess (100 μM) competitor, 2.5 μM tubulin, 0.25 μM radiolabeled Probe 1): approximately 87%
- inhibition of radiolabeled Probe 1 binding in cell lysates [1]: can inhibit the binding of radiolabled Probe 1
- effect on subtilisin digestion of α-tubulin (α-tubulin; 0.25 μM radiolabeled): partially inhibits the digestion of α-tubulin
- effect on subtilisin digestion of α-tubulin (α-tubulin; 100 or 250 μM non-radiolabeled, β-tubulin is completely digested): completely blocks
